In patent US20160244802A1, “Protein Demethylases Comprising a JMJC Domain” (The University of North Carolina at Chapel Hill, priority 2005, published 2016):

What was measured:
[1] = system: PSA enhancer and NKX3.1 gene; assay: ChIP assay in LNCaP cells; assay type: cell-based; conditions: 50 nM, 1 hour
Experimental: (§1) Recombinant JMJD1A was mixed with in vitro translated […] AR in the absence or presence of R1881 (100 nM). After immunoprecipitation with anti-JHDM2A antibody, AR was detected by autoradiography. […] LNCaP cells were cultured in charcoal-stripped serum medium for three days and then treated without or with R1881 (50 nM) for 1 hour before being processed for ChIP analysis. […] LNCaP cells were transfected with a scramble (siCON), siJHDM2A or siLSD1 as indicated. Tubulin served as a loading control. […] The cells were treated as in FIG. 14B except the cells were collected for RNA isolation 8 hours after the R1881 treatment. […] The LNCaP cells were treated with siJHDM2A or siCON for three days and then 50 nM R1881 for 1 hour before processed for ChIP assays using antibodies as indicated.
For ChIP assay in LNCaP cells, the cells were cultured in charcoal-stripped serum medium for three days before treatment with R1881 (50 nM) for 1 hour. The ChIP assay was performed essentially as previously described (Yoon, et al. (2005) Mol. Cell Biol. 25:324-335). Primers for RT-PCR analysis of the PSA mRNA were 5′-GCCCACCCAGGAGCCAGCACT-3′ (SEQ ID NO:27) and 5′-GGCCCCCAGAATCACCCGAGCAG-3′ (SEQ ID NO:28).

[2] = system: AR target genes PSA, NKX3.1 and TMPRSS22; assay: Quantitative RT-PCR of AR target genes in LNCaP cells; assay type: cell-based; conditions: 50 nM, 8 hours
Experimental: as §1
For ChIP assay in LNCaP cells, the cells were cultured in charcoal-stripped serum medium for three days before treatment with R1881 (50 nM) for 1 hour. […]
To directly test and compare the role of JHDM2A and LSD1 in hormone-dependent transcriptional activation, we used siRNA to knockdown JHDM2A and LSD1 in LNCaP cells (FIG. 14C). We then evaluated the effects of JHDM2A or LSD1 knockdown on the hormone induced activation of three AR target genes, PSA, NKX3.1 and TMPRSS22, by quantitative RT-PCR. […]

[3] = system: modified histone H3 peptide substrates (H3K4 me3, me2, me1); assay: Histone demethylase assay with modified histone H3 peptide substrates, mass spectrometry; assay type: biochemical

Row | Compound | binding of the AR to the PSA enhancer [1] | transcription from AR target genes [2] | removal of the me1 modification state ([3]; H3K4me1 peptide, in vitro) | demethylation of the modified substrate ([3]; H3K4me3 and me2 peptides, recombinant Flag-RBP2)
1 | C[C@]1(O)CC[C@H]2[C@@H]3CCC4=CC(=O)CCC4=C3C=C[C@@]21C [R1881] | strong binding | robustly activated transcription | – | –
2 | RBP2: Flag-tagged JmjC domain H3K4 demethylase expressed in SF9 cells by baculovirus, affinity purified | – | – | failed to catalyze removal | 80-90%
